In PubChem BioAssay AID330 (DTP/NCI, 2004):
Values joined by “and” are separate entries in the source; they are usually repeats but may differ in a detail not shown here. Equal values may be shown once. Inconclusive results and toxic doses are left out.

Test system: P388 leukemia ip, CD2F1 mice, survival T/C
Assay: NCI In Vivo Anticancer Drug Screen. Data for tumor model P388 Leukemia (intraperitoneal) in CD2F1 (CDF1) mice
Details: endpoint: median survival time, higher = longer survival
In short: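 Mice carrying the transplanted tumor received test compound or vehicle. Survival was recorded in each group, and the value is the treated-group measurement divided by that of the vehicle-treated control group.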

[1] = dose: 50.0 mg/kg/injection, schedule: Q01DX005 (ip), vehicle: saline with Tween-80
[2] = dose: 100.0 mg/kg/injection, schedule: Q01DX005 (ip), vehicle: saline with Tween-80
[3] = dose: 200.0 mg/kg/injection, schedule: Q01DX005 (ip), vehicle: saline with Tween-80
[4] = dose: 50.0 mg/kg/injection, schedule: Q01DX009 (ip), vehicle: Klucel (hydroxypropylcellulose) (HPC)
[5] = dose: 100.0 mg/kg/injection, schedule: Q01DX009 (ip), vehicle: Klucel (hydroxypropylcellulose) (HPC)
[6] = dose: 200.0 mg/kg/injection, schedule: Q01DX009 (ip), vehicle: Klucel (hydroxypropylcellulose) (HPC)
[7] = dose: 25.0 mg/kg/injection, schedule: Q01DX005 (ip), vehicle: Klucel (hydroxypropylcellulose) (HPC)
[8] = dose: 50.0 mg/kg/injection, schedule: Q01DX005 (ip), vehicle: Klucel (hydroxypropylcellulose) (HPC)
[9] = dose: 12.5 mg/kg/injection, schedule: Q01DX005 (ip), vehicle: Klucel (hydroxypropylcellulose) (HPC)
[10] = dose: 50.0 mg/kg/injection, schedule: Q01DX009 (ip), vehicle: saline with Tween-80
[11] = dose: 100.0 mg/kg/injection, schedule: Q01DX009 (ip), vehicle: saline with Tween-80
[12] = dose: 200.0 mg/kg/injection, schedule: Q01DX009 (ip), vehicle: saline with Tween-80

O=NNc1ccccn1
T/C (dose: 0.78 mg/kg/injection, schedule: Q01DX009 (ip), vehicle: saline): 106 % of control
T/C (dose: 1.5 mg/kg/injection, schedule: Q01DX009 (ip), vehicle: saline): 100 % of control
T/C (dose: 1.5 mg/kg/injection, schedule: Q01DX009 (ip), vehicle: water): 103 % of control
T/C (dose: 1.56 mg/kg/injection, schedule: Q01DX005 (ip), vehicle: water): 103 % of control and 106 % of control and 112 % of control
T/C (dose: 1.56 mg/kg/injection, schedule: Q01DX009 (ip), vehicle: saline + alcohol): 108 % of control
T/C (dose: 1.59 mg/kg/injection, schedule: Q01DX009 (ip), vehicle: water): 119 % of control
T/C (dose: 3.0 mg/kg/injection, schedule: Q01DX009 (ip), vehicle: saline): 118 % of control
T/C (dose: 3.0 mg/kg/injection, schedule: Q01DX009 (ip), vehicle: water): 121 % of control
T/C (dose: 3.12 mg/kg/injection, schedule: Q01DX009 (ip), vehicle: saline + alcohol): 123 % of control
T/C (dose: 12.0 mg/kg/injection, schedule: Q01DX009 (ip), vehicle: water): 151 % of control and 163 % of control
T/C (dose: 25.0 mg/kg/injection, schedule: Q01DX009 (ip), vehicle: saline + alcohol): 175 % of control

Cc1cc(C)nc(NS(=O)(=O)c2ccc(Nc3c4ccc(Cl)cc4nc4ncccc34)cc2)n1
T/C [1]: 110 % of control
T/C [2]: 106 % of control
T/C [3]: 116 % of control

O=CNNC(=O)C(Cl)Cl
T/C [4]: 107 % of control
T/C [5]: 107 % of control
T/C [6]: 112 % of control

CN(C(=O)NCCCl)C1=NC(O)(c2ccccc2)C(c2ccccc2)=N1 (configuration not stated)
T/C (dose: 100.0 mg/kg/injection, schedule: Q04DX002 (ip), vehicle: saline with Tween-80): 106 % of control
T/C (dose: 200.0 mg/kg/injection, schedule: Q04DX002 (ip), vehicle: saline with Tween-80): 113 % of control
T/C (dose: 400.0 mg/kg/injection, schedule: Q04DX002 (ip), vehicle: saline with Tween-80): 112 % of control

c1ccc(N2CCN(c3ccccc3)C2=C2N(c3ccccc3)CCN2c2ccccc2)cc1
T/C (dose: 3.0 mg/kg/injection, schedule: Q01DX005 (ip), vehicle: saline): 105 % of control
T/C (dose: 6.0 mg/kg/injection, schedule: Q01DX005 (ip), vehicle: saline): 107 % of control
T/C (dose: 12.0 mg/kg/injection, schedule: Q01DX005 (ip), vehicle: saline): 105 % of control
T/C (dose: 12.5 mg/kg/injection, schedule: Q01DX005 (ip), vehicle: saline): 114 % of control
T/C (dose: 25.0 mg/kg/injection, schedule: Q01DX005 (ip), vehicle: saline): 99 % of control and 118 % of control

COc1cc2oc(=O)cc(C)c2cc1[N+](=O)[O-]
T/C (dose: 50.0 mg/kg/injection, schedule: Q01DX009 (ip), vehicle: suspension in saline): 98 % of control
T/C (dose: 100.0 mg/kg/injection, schedule: Q01DX009 (ip), vehicle: suspension in saline): 95 % of control
T/C (dose: 200.0 mg/kg/injection, schedule: Q01DX009 (ip), vehicle: suspension in saline): 96 % of control

O=C(NN1C(=O)C=C(O)/C1=C\c1ccccc1)c1ccccc1
T/C [7]: 99 % of control and 104 % of control
T/C [8]: 101 % of control and 104 % of control and 111 % of control
T/C (dose: 100.0 mg/kg/injection, schedule: Q01DX005 (ip), vehicle: Klucel (hydroxypropylcellulose) (HPC)): 103 % of control and 105 % of control (2×)
T/C (dose: 200.0 mg/kg/injection, schedule: Q01DX005 (ip), vehicle: Klucel (hydroxypropylcellulose) (HPC)): 100 % of control and 105 % of control and 121 % of control

COC(=O)CS(=O)(=O)CC(=O)OC
T/C [4]: 100 % of control
T/C [5]: 106 % of control
T/C [6]: 101 % of control

O=C(NC(=S)Nc1c(Cl)cccc1Cl)c1cccc(Cl)c1
T/C [9]: 106 % of control
T/C [7]: 92 % of control
T/C [8]: 94 % of control

NS(=O)(=O)Cc1noc2ccc(F)cc12
T/C [1]: 93 % of control
T/C [2]: 104 % of control
T/C [3]: 103 % of control

N[C@@]1(C(F)(F)F)N[C@](N)(C(F)(F)F)C(F)(F)C(F)(F)C1(F)F
T/C (dose: 6.25 mg/kg/injection, schedule: Q01DX005 (ip), vehicle: Klucel (hydroxypropylcellulose) (HPC)): 102 % of control
T/C [9]: 95 % of control

OCC1OC(OC2C(CO)OC(S)C(O)C2O)C(O)C(O)C1O (configuration not stated)
T/C [10]: 98 % of control
T/C [11]: 92 % of control
T/C [12]: 92 % of control

Cc1ccc(-c2nc3ncnc(N)c3[nH]2)cc1
T/C (dose: 6.25 mg/kg/injection, schedule: Q04DX003 (ip), vehicle: saline with Tween-80): 100 % of control
T/C (dose: 12.5 mg/kg/injection, schedule: Q04DX003 (ip), vehicle: saline with Tween-80): 100 % of control
T/C (dose: 25.0 mg/kg/injection, schedule: Q04DX003 (ip), vehicle: saline with Tween-80): 100 % of control and 107 % of control and 114 % of control
T/C (dose: 50.0 mg/kg/injection, schedule: Q04DX003 (ip), vehicle: saline with Tween-80): 102 % of control and 113 % of control
T/C (dose: 100.0 mg/kg/injection, schedule: Q04DX003 (ip), vehicle: saline with Tween-80): 108 % of control and 124 % of control
T/C (dose: 200.0 mg/kg/injection, schedule: Q04DX003 (ip), vehicle: saline with Tween-80): 116 % of control

CC(=O)O[C@@H]1C[C@@](C)(C(=O)[C@H]2COC(=O)C2)[C@@H]2CC(=O)O[C@@H]3C[C@H]4[C@H](C)C[C@H](O)C(=O)[C@]4(C)[C@@H]1[C@]23C
T/C (dose: 3.0 mg/kg/injection, schedule: Q01DX009 (ip), vehicle: saline + alcohol): 98 % of control
T/C (dose: 6.0 mg/kg/injection, schedule: Q01DX009 (ip), vehicle: saline + alcohol): 116 % of control
T/C (dose: 12.0 mg/kg/injection, schedule: Q01DX009 (ip), vehicle: saline + alcohol): 107 % of control
T/C (dose: 24.0 mg/kg/injection, schedule: Q01DX009 (ip), vehicle: saline + alcohol): 100 % of control
T/C (dose: 48.0 mg/kg/injection, schedule: Q01DX009 (ip), vehicle: saline + alcohol): 107 % of control

C/C(=N/OC1=CC(=O)CC(C)(C)C1)c1ccccc1
T/C [1]: 104 % of control
T/C [2]: 104 % of control
T/C [3]: 99 % of control

CC1CN(C(=O)Nc2ccc([N+](=O)[O-])cc2)CC(C)O1 (configuration not stated)
T/C [10]: 96 % of control
T/C [11]: 87 % of control
T/C [12]: 89 % of control

CCSCCCC(=O)O
T/C (dose: 25.0 mg/kg/injection, schedule: Q01DX009 (ip), vehicle: saline): 100 % of control
T/C (dose: 50.0 mg/kg/injection, schedule: Q01DX009 (ip), vehicle: saline): 100 % of control
T/C (dose: 100.0 mg/kg/injection, schedule: Q01DX009 (ip), vehicle: saline): 100 % of control

NC(=O)CCCC(C(N)=O)c1ccccc1 (configuration not stated)
T/C (dose: 100.0 mg/kg/injection, schedule: Q01DX001 (ip), vehicle: Klucel (hydroxypropylcellulose) (HPC)): 100 % of control
T/C (dose: 200.0 mg/kg/injection, schedule: Q01DX001 (ip), vehicle: Klucel (hydroxypropylcellulose) (HPC)): 105 % of control
T/C (dose: 400.0 mg/kg/injection, schedule: Q01DX001 (ip), vehicle: Klucel (hydroxypropylcellulose) (HPC)): 99 % of control

Cc1cc(SSc2cc(C)nc(N)n2)nc(N)n1
T/C (dose: 100.0 mg/kg/injection, schedule: Q01DX001 (ip), vehicle: saline with Tween-80): 86 % of control
T/C (dose: 200.0 mg/kg/injection, schedule: Q01DX001 (ip), vehicle: saline with Tween-80): 86 % of control

CCn1cnc2c(=S)nc(N)[nH]c21
T/C (dose: 25.0 mg/kg/injection, schedule: Q01DX009 (ip), vehicle: Klucel (hydroxypropylcellulose) (HPC)): 105 % of control

COc1ccc(CC2c3cc(OC)c(OC)cc3CCN2C(C)=O)cc1OC (configuration not stated)
T/C (dose: 3.0 mg/kg/injection, schedule: Q01DX005 (ip), vehicle: saline with Tween-80): 99 % of control
T/C (dose: 6.0 mg/kg/injection, schedule: Q01DX005 (ip), vehicle: saline with Tween-80): 102 % of control
T/C (dose: 12.0 mg/kg/injection, schedule: Q01DX005 (ip), vehicle: saline with Tween-80): 95 % of control

CON1C(=O)OCC(c2ccccc2)(c2ccccc2)C1=O
T/C [1]: 99 % of control
T/C [2]: 104 % of control
T/C [3]: 91 % of control

COCNC(=S)c1ccc(C(N)=O)nc1C(=O)NC(C)(C)C
T/C [1]: 98 % of control
T/C [2]: 100 % of control
T/C [3]: 99 % of control

NS(=O)(=O)c1ncc(C(=O)N2CCN(Cc3ccccc3)CC2)[nH]1
T/C (dose: 60.0 mg/kg/injection, schedule: Q01DX005 (ip), vehicle: saline with Tween-80): 103 % of control
T/C (dose: 120.0 mg/kg/injection, schedule: Q01DX005 (ip), vehicle: saline with Tween-80): 107 % of control
T/C (dose: 240.0 mg/kg/injection, schedule: Q01DX005 (ip), vehicle: saline with Tween-80): 100 % of control

N=C(N)c1ccc(N=Nc2c(O)ccc3c2[nH]c2ccccc23)cc1
T/C [1]: 101 % of control
T/C [2]: 98 % of control
T/C [3]: 106 % of control
